Experimental data as given in patent US10342779B2 (Therapicon S.R.L., priority 2014, dated 2019).
Read-outs that look alike come from different tables or passages of the source.

Experiments:
CYP1A2 = biological target: T1, CYP1A2 (Homo sapiens, UniProt P05177); conditions: cited from earlier work
T1 sequence (P05177 1-516): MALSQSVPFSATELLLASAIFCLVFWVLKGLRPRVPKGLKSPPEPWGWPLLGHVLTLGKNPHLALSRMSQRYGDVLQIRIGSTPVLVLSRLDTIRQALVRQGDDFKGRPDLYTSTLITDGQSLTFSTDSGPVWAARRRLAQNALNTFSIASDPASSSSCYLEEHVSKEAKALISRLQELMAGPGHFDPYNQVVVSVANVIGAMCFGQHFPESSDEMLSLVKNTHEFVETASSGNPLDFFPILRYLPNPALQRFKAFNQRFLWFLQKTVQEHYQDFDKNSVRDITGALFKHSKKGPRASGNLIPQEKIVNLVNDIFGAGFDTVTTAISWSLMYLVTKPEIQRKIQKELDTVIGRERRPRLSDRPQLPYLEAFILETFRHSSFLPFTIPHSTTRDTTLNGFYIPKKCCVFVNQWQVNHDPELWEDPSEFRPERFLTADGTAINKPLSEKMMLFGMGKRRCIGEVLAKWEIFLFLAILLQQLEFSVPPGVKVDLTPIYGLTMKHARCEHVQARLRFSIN

[1] = cited from earlier work
[2] = dog, intravenous 3 mg/kg; cited from earlier work
[3] = monkey, intravenous 3 mg/kg; cited from earlier work
[4] = rats, oral 10 mg/kg; cited from earlier work
[5] = rat, injected 5 mg/kg; cited from earlier work
[6] = monkeys, oral 10 mg/kg; cited from earlier work
[7] = cited from earlier work; remark: listed apart in the source
[8] = dogs, oral 10 mg/kg; cited from earlier work
[9] = test system: mouse-adapted DENV-2 strain D2S10; conditions: for Survival at day 20: IV, 19 days after challenge
[10] = man, intravenous administration; cited from earlier work

COc1ccc2[nH]cc(CCNC(C)=O)c2c1 [Melatonin, N-acetyl-5-methoxytryptamine]
enzyme mediating 6-hydroxylation and O-demethylation (CYP1A2): mainly CYP1A2 mediated
solubility in water [1]: 1200 to 2400 µg/mL
apparent elimination half-life [2]: 18.6 min
apparent elimination half-life [3]: 33.9 min
absolute bioavailability [4]: moderate
apparent elimination half-life [5]: 19.8 min
absolute bioavailability [6]: high
median (range) elimination half life ([7]; healthy volunteers, oral capsules 20, 30, 50, 100 mg, across all doses): 51.7 (29.5-63.2) minutes
unchanged melatonin renal clearance ([7]; human): lower than 1%
time of rapid decrease in serum melatonin ([7]; oral 3 mg/volunteer): 240 min
time to increase in serum melatonin after oral administration ([7]; oral 3 mg/volunteer): ≤ 20 min
half-life in blood ([7]; oral 100 mg): around 41 minutes
time to maximum blood and saliva concentrations ([7]; oral 100 mg): 60 min
AUC ([7]; oral capsules 20 mg): 1102 to 13616 ng/mL/min
AUC ([7]; oral capsules 30 mg): 822 to 2491 ng/mL/min
AUC ([7]; oral capsules 50 mg): 1812 to 8915 ng/mL/min
AUC ([7]; oral capsules 100 mg): 4458 to 18229 ng/mL/min
absolute human bioavailability, average ([7]; oral, female): 8.6%
absolute human bioavailability, average ([7]; oral, male): 16.8%
absolute human bioavailability, range ([7]; oral): 1-37%
inter-subject variation of AUC of individual subjects ([7]; oral): up to 25 times
absolute bioavailability [8]: high
Survival at day 20 ([9]; 75 mg/kg body weight): 4/6
Survival at day 20 ([9]; 100 mg/kg body weight): 6/6
Survival at day 20 ([9]; 150 mg/kg body weight): 6/6
protection effects versus Dengue virus induced condition ([9]; 100 and 150 mg/Kg/day, 19 days treatment): Complete survival
elimination half-life [10]: about 40 minutes
